Results reported in US20070213359A1 (ACADIA Pharmaceuticals Inc., priority 2005, published 2007).
Read-outs that look alike come from different tables or passages of the source.

Columns and labels:
Ghrelin receptor = Ghrelin receptor (Homo sapiens, UniProt Q92847); assay: Receptor Selection and Amplification Technology (R-SAT) assay; type: cell-based; set-up: expressed in transfected cells; host or cells: NIH3T3; settings: for IC50: '—' not defined (nd used separately), read-out: RSAT pIC50 (converted); for Emax: read-out: RSAT Eff(%)
GHSR1a receptor = target: T1, GHSR1a receptor (Homo sapiens, UniProt Q92847); assay: 125I-Ghrelin binding assay; settings: displacement of 125I-ghrelin (0.053 nM), membranes of HEK293 cells transfected with GHSR1a; Cheng-Prussoff; '—' not defined; read-out: Binding pKi (converted)
T1 construct: expressed in transfected cells; host or cells: HEK293 (membranes)

[1] = negative logarithm of ligand concentration causing 50% inhibition of constitutive receptor response, transfected NIH3T3 cells
[2] = percent inhibition at saturating ligand, normalized to reference ligand Substance P analog = 100%

Chain of Ghrelin receptor (Q92847 whole entry): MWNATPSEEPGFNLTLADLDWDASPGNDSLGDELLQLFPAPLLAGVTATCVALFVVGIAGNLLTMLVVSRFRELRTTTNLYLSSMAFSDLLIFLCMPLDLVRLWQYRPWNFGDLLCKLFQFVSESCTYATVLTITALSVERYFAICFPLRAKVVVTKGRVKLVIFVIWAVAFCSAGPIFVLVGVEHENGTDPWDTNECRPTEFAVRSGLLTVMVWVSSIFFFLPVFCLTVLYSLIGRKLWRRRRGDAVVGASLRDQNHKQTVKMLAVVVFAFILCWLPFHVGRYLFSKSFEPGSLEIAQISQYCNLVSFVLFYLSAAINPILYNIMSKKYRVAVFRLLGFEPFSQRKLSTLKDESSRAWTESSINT
T1 sequence (Q92847 whole entry): as above

| SMILES | IC50 (Ghrelin receptor; […]) [nM] | Emax (Ghrelin receptor) [%] | Ki (GHSR1a receptor) [nM] | IC50 (Ghrelin receptor; [1]) [nM] | Emax (Ghrelin receptor; [2]) [%] | RSAT Eff(%) (Ghrelin receptor; [2]) |
| --- | --- | --- | --- | --- | --- | --- |
| COc1cccc2c(C(=O)Cc3ccccc3)cn(CCCN3C4CCC3CC(CCc3ccccc3)C4)c12 (stereo not shown) | 0.251 | 141 | 10 | – | – | – |
| CCCCC[C@H]1C[C@H]2CC[C@@H](C1)N2CCCn1cc(C(C)=O)c2cccc(Br)c21 | – | – | 158 | 1.26 | 81 | – |
| COc1cccc2c(C(C)=O)cn(CCCN3CCCN(Cc4ccc(F)cc4)CC3)c12 | – | – | 15.8 | 1.26 | – | 130 |
| CCc1cccc2c(C(C)=O)cn(CCCN3CCC(Oc4cccc(Cl)c4)CC3)c12 | – | – | 31.6 | 1.58 | 118 | – |
| COc1cccc2c(C(=O)NCC(C)C)cn(CCCN3CCC(Oc4ccc(F)cc4)CC3)c12 | – | 90 | 126 | 1.58 | – | – |
| COc1cccc2c(C(=O)C3CC3)cn(CCCN3CCC(Oc4cccc(Cl)c4)CC3)c12 | – | 102 | 20 | 1.58 | – | – |
| CCCCC[C@H]1C[C@H]2CC[C@@H](C1)N2CCCn1cc(C(C)=O)c2cccc(OC)c21 | – | – | 316 | 2 | – | 113 |
| COc1cccc2c(C#N)cn(CCCN3C4CCC3CC(CCc3ccccc3)C4)c12 (stereo not shown) | – | 104 | 25.1 | 2 | – | – |
| COc1cccc2c(C(C)=O)cn(CCCN3CCN(c4ncc(C(F)(F)F)cc4Cl)CC3)c12 | – | – | 398 | 2.51 | – | 103 |
| COc1cccc2c(C#N)cn(CCCN3CCCN(Cc4ccccc4Cl)CC3)c12 | – | – | 12.6 | 2.51 | 137 | – |
| CC(=O)c1cn(CCCN2CCC(C(=O)c3ccccc3)CC2)c2c(C)cccc12 | – | – | 100 | 3.16 | 96 | – |
| CC(=O)c1cn(CCCN2CCCN(Cc3ccccc3Cl)CC2)c2ncccc12 | – | – | 25.1 | 3.16 | 115 | – |
| COc1cccc2c(C(=O)Cc3ccccc3)cn(CCCN3CCN(Oc4cccc(Cl)c4)CC3)c12 | 3.16 | 88 | 15.8 | – | – | – |
| COc1cccc2c(C(=O)Cc3ccccc3)cn(CCCN3C4CCC3CC(Oc3ccc(F)cc3)C4)c12 (stereo not shown) | 3.98 | 99 | 251 | – | – | – |
| COc1cccc2c(C(=O)c3ccccc3)cn(CCCN3CCCN(Cc4ccc(F)cc4)CC3)c12 | 3.98 | 96 | 10 | – | – | – |
| COc1cccc2c(C(=O)NCC(C)C)cn(CCCN3CCC(Oc4ccc(Cl)cc4)CC3)c12 | – | 146 | 50.1 | 3.98 | – | – |
| COc1cccc2c(C(=O)c3ccccc3)cn(CCCN3CCC(Oc4ccc(F)cc4)CC3)c12 | 25.1 | 107 | 1260 | – | – | – |
| COc1ccccc1C1CCN(CCCn2cc(C(=O)NCC(C)C)c3cccc(OC)c32)CC1 | – | 108 | 126 | 25.1 | – | – |
| COc1cccc2c(C(C)=O)cn(CCCN3CCN(c4ccccc4Cl)CC3)c12 | – | – | 2510 | 25.1 | 108 | – |
| COc1cccc2c(C(C)=O)cn(CCCN3CCN(c4ccc(C(F)(F)F)cc4)CC3)c12 | – | – | 251 | 25.1 | 92 | – |
| COc1cccc2c(C(=O)Cc3ccccc3)cn(CCCN3CCCC(Cc4ccccc4Cl)C3)c12 (stereo not shown) | 25.1 | 116 | 126 | – | – | – |

| SMILES | IC50 (Ghrelin receptor; […]) [nM] | Emax (Ghrelin receptor) [%] | Ki (GHSR1a receptor) [nM] | IC50 (Ghrelin receptor; [1]) [nM] | Emax (Ghrelin receptor; [2]) [%] | RSAT Eff(%) (Ghrelin receptor; [2]) |
| --- | --- | --- | --- | --- | --- | --- |
| Cc1cccc(CNC(=O)n2cc(CCCN3C4CCC3CC(CCc3ccccc3)C4)c3ccccc32)c1 (stereo not shown) | – | – | 158 | 31.6 | 114 | – |
| O=C(c1cn(CCCN2C3CCC2CC(CCc2ccccc2)C3)c2ncccc12)C(F)(F)F (stereo not shown) | – | – | 200 | 31.6 | 104 | – |
| COc1cccc2c(C(C)=O)cn(CCCN3CCC(Cc4ccccc4)CC3)c12 | – | – | 794 | 31.6 | 116 | – |
| O=C(c1cn(CCCN2CCCN(Cc3ccccc3Cl)CC2)c2ncccc12)C(F)(F)F | – | – | 50.1 | 31.6 | 85 | – |
| COc1ccccc1C1CCN(CCCn2cc(C(C)=O)c3cccc(OC)c32)CC1 | – | – | 631 | 39.8 | – | 109 |
| CC(=O)c1cn(CCCN2CCC(Oc3ccc(F)cc3)CC2)c2c(Cl)cccc12 | – | – | 2000 | 39.8 | 120 | – |
| COc1cccc2c(C(C)=O)cn(CCCN3CCC(C(=O)c4ccccc4)CC3)c12 | – | – | 2000 | 39.8 | – | 98 |
| COc1cccc2c(C(C)=O)cn(CCCN3CCN(c4ccc(C(F)(F)F)cc4[N+](=O)[O-])CC3)c12 | – | – | 631 | 39.8 | 94 | – |
| COc1cccc2c(C#N)cn(CCCN3C4CCC3CC(CCc3ccc(Cl)cc3)C4)c12 (stereo not shown) | – | – | 251 | 39.8 | 77 | – |
| CC(=O)c1cn(CCCN2CCC(Oc3ccc(Cl)cc3)CC2)c2c(C)cccc12 | – | – | 2000 | 39.8 | 101 | – |
| COc1cccc2c(C(C)=O)cn(CC(C)CN3CCC(Oc4cccc(Cl)c4)CC3)c12 (stereo not shown) | – | – | 794 | 39.8 | 102 | – |
| COc1ccccc1C1CCN(CCCn2cc(C(C)=O)c3cccc(C)c32)CC1 | – | – | 1260 | 39.8 | 116 | – |
| CC(=O)c1cn(CCCN2C3CCC2CC(Oc2ccc(F)cc2)C3)c2c(C#N)cccc12 (stereo not shown) | – | – | 100 | 50.1 | 93 | – |
| COc1cccc2c(C(=O)NCc3cccc(Cl)c3)cn(CCCN3C4CCC3CC(Oc3ccc(Cl)cc3)C4)c12 (stereo not shown) | – | – | 251 | 50.1 | – | 97 |
| COc1ccc(C(=O)OC2C[C@H]3CC[C@@H](C2)N3CCCn2cc(C(C)=O)c3cccc(OC)c32)cc1OC (stereo partly shown) | – | 104 | 1000 | 50.1 | – | – |
| COc1ccccc1C1CCN(CCCn2cc(C(C)=O)c3cccc(Br)c32)CC1 | – | – | 316 | 50.1 | 109 | – |
| CC(=O)c1cn(CCCN2C3CCC2CC(Oc2ccc(Cl)cc2)C3)c2c(Cl)cccc12 (stereo not shown) | – | – | 1000 | 50.1 | 104 | – |
| CC(=O)c1cn(CCCN2C3CCC2CC(CCc2ccc(Cl)cc2)C3)c2ncccc12 (stereo not shown) | – | – | 398 | 79.4 | 87 | – |
| CC(=O)c1cn(CCCN2CCC(C(=O)c3ccccc3)CC2)c2c(Br)cccc12 | – | – | 1580 | 79.4 | 84 | – |
| COc1cccc2c(C#N)cn(CCCN3C4CCC3CC(Oc3ccccc3Cl)C4)c12 (stereo not shown) | – | – | 631 | 100 | 114 | – |
| CC(C)CC(=O)c1cn(CCCN2CCC(Oc3ccc(F)cc3)CC2)c2ccccc12 | 100 | 93 | 1000 | – | – | – |

| SMILES | IC50 (Ghrelin receptor; […]) [nM] | Emax (Ghrelin receptor) [%] | Ki (GHSR1a receptor) [nM] | IC50 (Ghrelin receptor; [1]) [nM] | Emax (Ghrelin receptor; [2]) [%] | RSAT Eff(%) (Ghrelin receptor; [2]) |
| --- | --- | --- | --- | --- | --- | --- |
| CCc1cccc2c(C(C)=O)cn(CCCNCCOc3ccccc3)c12 | – | – | 12.6 | 100 | 106 | – |
| CCCCC(=O)c1cn(CCCN2CCC(Oc3ccc(Cl)cc3)CC2)c2ccc(OC)cc12 | – | 111 | 251 | 126 | – | – |
| CC(=O)c1cn(CCCN2CCC(Oc3ccc(Cl)cc3)CC2)c2ccccc12 | – | – | 2510 | 126 | 104 | – |
| CCCCCC=C1CCN(CCCn2cc(C(C)=O)c3ccccc32)CC1 | – | – | 200 | 200 | 139 | – |
| CCCCCCC1CCN(CCCn2cc(C(C)=O)c3ccccc32)CC1 | – | – | 6310 | 200 | 94 | – |
| CC(=O)c1cn(CCCN2CCC(CCC(C)C)CC2)c2ccccc12 | – | – | 3980 | 398 | 73 | – |
| CC(=O)c1c(C)n(CCCN2C3CCC2CC(CC(=O)c2ccc(Cl)cc2)C3)c2c(Br)cccc12 (stereo not shown) | – | – | 63.1 | 631 | 64 | – |
| CC(=O)c1cn(CCCN2C3CCC2CC(OCC2CC2)C3)c2ccccc12 (stereo not shown) | – | – | 15800 | 1260 | 89 | – |
| COc1cccc2c(C#N)cn(CCCN3CCC(Oc4cccc(Cl)c4)CC3)c12 | – | – | 39.8 | 1260 | 162 | – |
| COc1ccc2c(c1)C1CCN(CCCn3cc(C(C)=O)c4ccccc43)CC1C2 (stereo not shown) | – | – | 5010 | 1260 | 110 | – |
| COC(=O)c1cn(CCCN2CCC(Oc3ccc(F)cc3)CC2)c2ccccc12 | – | – | 3160 | 2000 | 87 | – |
| COc1cccc2c(C#N)cn(CCCN3C4CCC3CC(Oc3ccc(F)cc3)C4)c12 (stereo not shown) | – | – | 200 | 15800 | 107 | – |
| COc1cccc2c(C#N)cn(CCCN3C4CCC3CC(CC(=O)c3ccc(Cl)cc3)C4)c12 (stereo not shown) | – | – | 79.4 | – | 12 | – |
| CC(=O)c1c(C)n(CCCN2C3CCC2CC(Oc2ccccc2Cl)C3)c2c(Br)cccc12 (stereo not shown) | – | – | 100 | – | 37 | – |
| COc1cccc2c(C#N)cn(CCCN3CCCC(Cc4ccccc4Cl)C3)c12 (stereo not shown) | – | – | 200 | – | 62 | – |
| O=C(c1cn(CCCN2C3CCC2CC(Oc2ccccc2Cl)C3)c2ncccc12)C(F)(F)F (stereo not shown) | – | – | 251 | – | 23 | – |
| CC(=O)c1c(C)n(CCCN2CCCN(Cc3ccccc3Cl)CC2)c2c(Br)cccc12 | – | – | 398 | – | -14 | – |
| COc1cccc2c(C(C)=O)cn(CC(C)CN3C4CCC3CC(CC(=O)c3ccc(Cl)cc3)C4)c12 (stereo not shown) | – | 16 | 398 | – | – | – |
| CCc1cccc2c(C(C)=O)cn(CCCN3CCC(CCOc4ccc(Cl)cc4)CC3)c12 | – | – | 501 | – | 76 | – |
| O=C(CC1CC2CCC(C1)N2CCCn1cc(C(=O)C(F)(F)F)c2cccnc21)c1ccc(Cl)cc1 (stereo not shown) | – | – | 631 | – | 10 | – |
